Measured values taken from article PMC10882719 (Frontiers in Neuroscience, 2024).
Read-outs that look alike come from different tables or passages of the source.

Key:
Format in all cases: cell-based
168 GPCRs [1] = molecular target: T1, 168 GPCRs (Homo sapiens, UniProt P48146)
T1 construct: host or cells: PathHunter cell lines

168 GPCRs [2] = molecular target: T2, 168 GPCRs (Homo sapiens, UniProt P32238); settings: CCKAR
T2 construct: host or cells: PathHunter cell lines
T2 sequence (P32238 1-428): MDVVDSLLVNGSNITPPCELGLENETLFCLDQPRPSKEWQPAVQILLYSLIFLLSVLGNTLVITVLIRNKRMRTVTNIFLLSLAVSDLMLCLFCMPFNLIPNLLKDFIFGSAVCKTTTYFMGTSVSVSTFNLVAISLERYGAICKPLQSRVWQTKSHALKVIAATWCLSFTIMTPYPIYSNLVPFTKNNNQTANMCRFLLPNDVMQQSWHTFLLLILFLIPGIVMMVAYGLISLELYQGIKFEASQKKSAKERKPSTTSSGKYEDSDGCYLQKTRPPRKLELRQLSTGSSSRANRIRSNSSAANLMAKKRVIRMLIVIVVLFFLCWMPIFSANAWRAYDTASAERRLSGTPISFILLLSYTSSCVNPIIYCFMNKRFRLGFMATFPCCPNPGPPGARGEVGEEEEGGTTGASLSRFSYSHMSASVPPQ

168 GPCRs [3] = molecular target: T3, 168 GPCRs (Homo sapiens, UniProt P25090)
T3 construct: host or cells: PathHunter cell lines
T3 sequence (P25090 1-351): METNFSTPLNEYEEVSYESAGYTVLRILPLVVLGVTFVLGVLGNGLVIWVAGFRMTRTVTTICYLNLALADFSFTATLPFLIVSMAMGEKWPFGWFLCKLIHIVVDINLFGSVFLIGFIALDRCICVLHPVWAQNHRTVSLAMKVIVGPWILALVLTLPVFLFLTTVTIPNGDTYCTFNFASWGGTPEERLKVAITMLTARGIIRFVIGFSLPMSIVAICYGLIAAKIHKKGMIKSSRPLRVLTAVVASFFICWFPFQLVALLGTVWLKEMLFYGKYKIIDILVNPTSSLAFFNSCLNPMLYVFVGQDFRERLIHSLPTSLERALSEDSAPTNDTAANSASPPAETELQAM

168 GPCRs [4] = molecular target: T4, 168 GPCRs (Homo sapiens, UniProt P29371); settings: TACR3
T4 construct: host or cells: PathHunter cell lines
T4 sequence (P29371 1-465): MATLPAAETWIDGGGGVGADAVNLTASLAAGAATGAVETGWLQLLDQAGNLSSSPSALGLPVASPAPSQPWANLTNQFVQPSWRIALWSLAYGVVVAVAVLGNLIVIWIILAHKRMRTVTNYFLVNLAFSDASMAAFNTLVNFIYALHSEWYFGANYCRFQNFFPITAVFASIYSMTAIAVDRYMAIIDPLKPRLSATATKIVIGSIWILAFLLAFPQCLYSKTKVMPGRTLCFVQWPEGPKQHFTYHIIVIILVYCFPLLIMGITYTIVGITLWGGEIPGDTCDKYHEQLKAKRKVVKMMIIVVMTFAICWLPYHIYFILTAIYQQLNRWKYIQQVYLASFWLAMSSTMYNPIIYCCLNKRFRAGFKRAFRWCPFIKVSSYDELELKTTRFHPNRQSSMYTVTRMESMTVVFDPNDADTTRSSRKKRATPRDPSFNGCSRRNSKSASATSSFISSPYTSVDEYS

168 GPCRs [5] = molecular target: T5, 168 GPCRs (Homo sapiens, UniProt P30872); settings: SSTR1
T5 construct: host or cells: PathHunter cell lines
T5 sequence (P30872 whole entry): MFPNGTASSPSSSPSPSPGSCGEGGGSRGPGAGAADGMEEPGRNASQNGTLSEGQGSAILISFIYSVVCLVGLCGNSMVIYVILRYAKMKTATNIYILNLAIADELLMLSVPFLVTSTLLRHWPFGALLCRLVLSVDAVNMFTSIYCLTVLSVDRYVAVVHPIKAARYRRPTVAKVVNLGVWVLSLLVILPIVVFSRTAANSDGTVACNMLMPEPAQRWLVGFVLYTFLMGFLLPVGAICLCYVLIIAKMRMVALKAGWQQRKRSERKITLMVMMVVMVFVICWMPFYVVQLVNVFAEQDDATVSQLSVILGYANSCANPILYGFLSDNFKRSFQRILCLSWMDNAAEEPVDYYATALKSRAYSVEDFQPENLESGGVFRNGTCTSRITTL

168 GPCRs [6] = molecular target: T6, 168 GPCRs (Homo sapiens, UniProt P08912)
T6 construct: host or cells: PathHunter cell lines
T6 sequence (P08912 1-532): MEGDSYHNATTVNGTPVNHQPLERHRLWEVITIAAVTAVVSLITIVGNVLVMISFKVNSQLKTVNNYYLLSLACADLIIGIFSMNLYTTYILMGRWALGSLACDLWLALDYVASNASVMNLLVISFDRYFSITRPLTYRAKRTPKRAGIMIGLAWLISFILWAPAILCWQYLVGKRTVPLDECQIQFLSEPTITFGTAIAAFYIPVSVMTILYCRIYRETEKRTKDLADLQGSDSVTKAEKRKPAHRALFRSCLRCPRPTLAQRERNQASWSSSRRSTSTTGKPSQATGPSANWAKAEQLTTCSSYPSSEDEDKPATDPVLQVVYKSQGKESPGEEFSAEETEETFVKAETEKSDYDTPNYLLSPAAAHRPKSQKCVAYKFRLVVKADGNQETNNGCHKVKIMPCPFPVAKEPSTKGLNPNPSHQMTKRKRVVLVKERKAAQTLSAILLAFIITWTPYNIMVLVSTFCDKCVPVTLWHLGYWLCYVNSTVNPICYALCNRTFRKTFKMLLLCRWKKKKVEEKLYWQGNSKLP

T1 sequence (P48146 whole entry): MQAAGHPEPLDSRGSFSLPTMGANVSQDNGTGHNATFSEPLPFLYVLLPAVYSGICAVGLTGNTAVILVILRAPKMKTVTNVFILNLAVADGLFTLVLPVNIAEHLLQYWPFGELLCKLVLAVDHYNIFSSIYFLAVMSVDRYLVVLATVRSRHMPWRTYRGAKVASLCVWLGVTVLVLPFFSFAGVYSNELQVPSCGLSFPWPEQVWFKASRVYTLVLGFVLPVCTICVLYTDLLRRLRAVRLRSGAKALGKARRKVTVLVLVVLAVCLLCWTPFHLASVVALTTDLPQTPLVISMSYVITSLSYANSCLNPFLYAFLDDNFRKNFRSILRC

Row | Compound | % Agonist Activity (168 GPCRs [1]; NPBWR2, 1 uM) | % Antagonist Activity (168 GPCRs [1]; NPBWR2, 1 uM) | % Agonist Activity (168 GPCRs [1]; NPBWR2, Conc 10 uM) | % Antagonist Activity (168 GPCRs [1]; NPBWR2, Conc 10 uM) | % Agonist Activity (168 GPCRs [2]; 1 uM) | % Antagonist Activity (168 GPCRs [2]; 1 uM) | % Agonist Activity (168 GPCRs [2]; 10 uM) | % Antagonist Activity (168 GPCRs [2]; 10 uM) | % Agonist Activity (168 GPCRs [3]; FPRL1, 1 uM) | % Antagonist Activity (168 GPCRs [3]; FPRL1, 1 uM) | % Agonist Activity (168 GPCRs [3]; FPRL1, 10 uM) | % Antagonist Activity (168 GPCRs [3]; FPRL1, 10 uM) | % Agonist Activity (168 GPCRs [4]; Conc 1 uM) | % Antagonist Activity (168 GPCRs [4]; Conc 1 uM) | % Agonist Activity (168 GPCRs [4]; Conc 10 uM) | % Antagonist Activity (168 GPCRs [4]; Conc 10 uM) | % Agonist Activity (168 GPCRs [5]; Conc 1 uM) | % Antagonist Activity (168 GPCRs [5]; Conc 1 uM) | % Agonist Activity (168 GPCRs [5]; Conc 10 uM) | % Antagonist Activity (168 GPCRs [5]; Conc 10 uM) | also measured
1 | CNC(C)Cc1ccc2c(c1)OCO2 (stereo not drawn) [MDMA, 3,4-Methylenedioxy methamphetamine, reference compound] | -2.6% | -2.1% | -2.3% | 2.4% | -0.1% | -2.2% | 0.4% | 0.7% | -0.1% | 14.8% | -0.1% | 16.7% | 0.1% | 14.6% | 1% | 19.1% | -9% | 5.6% | -12.3% | 7.5% | % Agonist Activity (168 GPCRs [6]; CHRM5, 1 uM): 8.8%; % Antagonist Activity (168 GPCRs [6]; CHRM5, 1 uM): 11.2%; % Agonist Activity (168 GPCRs [6]; CHRM5, 10 uM): 8.3%; % Antagonist Activity (168 GPCRs [6]; CHRM5, 10 uM): 14.4%
2 | CNC(C)C(=O)c1ccc2c(c1)OCO2 (stereo not drawn) [methylone] | -0.3% | -14.1% | 1.3% | -14% | 0.1% | -4.3% | -0.3% | -3.3% | -0.5% | 12.3% | 0.1% | 3.9% | 0.8% | -3.9% | 1.1% | -14.3% | -5.3% | 32.4% | -7.4% | 20.9% | % Agonist Activity (168 GPCRs [6]; CHRM5, 1 uM): 7.2%; % Antagonist Activity (168 GPCRs [6]; CHRM5, 1 uM): -8%; % Agonist Activity (168 GPCRs [6]; CHRM5, 10 uM): 8.7%; % Antagonist Activity (168 GPCRs [6]; CHRM5, 10 uM): -7.6%
